One data set deals with Treg expansion. Put plainly: Treg expansion in co-culture with compound-treated BMDMs (macrophages). Also noted: key to Treg expansion macrophages: ✓: using strict cutoffs with respect to DSHN for passing each metric; X: using strict cutoffs with respect to DSHN for passing each metric. Format: cell-based, mouse. As to conditions: pass/fail with respect to DSHN. The protocol:
(§1) Preparation of Bone Marrow-Derived Macrophages (BMDMs) and Dendritic Cells. Bone marrow cells were collected from mouse tibia and femur. Cells were passed through 70-micron cell strainer and subsequently cultured 10 mL complete RPMI media supplemented with 20 ng/mL of recombinant murine M-CSF (576406; BioLegend, 315-02 PeproTech). On day 3, additional 5 ml of the complete media was added. On day 7, media was replaced. BMDMs were harvested on day 10 using cell stripper solution for further experiments. Dendritic cells were isolated from the spleens of wildtype, using mouse CD11c UltraPure MicroBeads (130-125-835; Miltenyi Biotec) according to the manufacturer's instructions) and cultured in RPMI medium supplemented with 10% heat-inactivated charcoal-stripped FBS, 50 μM β-mercaptoethanol, 1% sodium pyruvate, 1% nonessential amino acids, % penicillin/streptomycin, and 1% Glutamax.
(§2) In vitro Treg expansion assays. T cells were cultured in RPMI medium supplemented with 10% heat-inactivated charcoal-stripped FBS, 50 μM β-mercaptoethanol (Gibco), 1% sodium pyruvate, 1% nonessential amino acids, % penicillin/streptomycin, and 1% Glutamax (Gibco). Naïve CD4^+ T cells were isolated from the spleens of wildtype and OT-II, using Naive CD4^+ T Cell Isolation Kit (Miltenyi Biotec according to the manufacturer's instructions). T cells were labeled with the vital dye CFSE (BioLegend) or Cell Trace Violet (ThermoFisher) according to the manufacturer's instructions. For wildtype Treg expansion in presence of antigen presenting cells, naïve CD4^+ T cells were co-cultured with APC at indicated ratio in the presence of 0.5 μg/mL (anti-CD3 BioLegend), 0.5 ng/mL TGFβ (BioLegend) and 0.5 ng/ml IL-2 (BioLegend) for 72 hr at 37° C. For OT-II Treg expansion, OTII naïve CD4^+ T cells from OT-II mice were activated by antigen presentation by culturing BMDMs were primed with 10 μg/mL OVA323-339 (Bachem) and 0.5 μg/mL LPS (Sigma). naïve CD4+ T cells from OTII mice were co-cultured with primed APC at indicated ratio for 72 hrs. After 72 hrs of culture, cells were transferred into V-bottom plates (BD), pelleted by centrifugation and incubated with antibody staining mix containing Ghost Dye™ Red 780 viability dye diluted in PBS for 15 minutes at 4° C. Cell surface antigens were stained for 15 minutes at 4° C. with an antibody staining mix containing Ghost Dye™ Red 780 viability dye diluted in PBS. Cells were fixed and permeabilized with BD Cytofix/Cytoperm™ for 20 minutes at 4° C. Antibodies against intracellular antigens were diluted in 1×BD Perm/Wash™ buffer and cells were stained for 30 minutes at 4° C. Cytometry data were acquired on a LSRII, Fortessa, Symphony A1 (Becton Dickinson, NJ). Foxp3 induction was assessed by expression of FOXP3.
As for `CCNS(=O)(=O)c1cccc2cc(C(=O)OC)c(OC)cc12` [Compound 5, Methyl 5-(N-ethylsulfamoyl)-3-methoxy-2-naphthoate], the Treg expansion macrophages entry is listed as “✓”.

As to `CCNS(=O)(=O)c1ccc2cc(OC)c(C(=O)OC)cc2c1` [Compound 6, Methyl 7-(N-ethylsulfamoyl)-3-methoxy-2-naphthoate], the Treg expansion macrophages result is listed as “✓”.

Take `COC(=O)c1cc2cccc(S(=O)(=O)N(C)C)c2cc1OC` [Compound 7, Methyl 5-(N,N-dimethylsulfamoyl)-3-methoxy-2-naphthoate]: the Treg expansion macrophages result is “✓”.

With `COC(=O)c1cc2cc(S(=O)(=O)N(C)C)ccc2cc1OC` [Compound 8, Methyl 7-(N,N-dimethylsulfamoyl)-3-methoxy-2-naphthoate], the Treg expansion macrophages result is given as “✓”.

Turning to `CCN(CC)S(=O)(=O)c1ccc2cc(O)c(C(=O)OC)cc2c1` [Compound 9, Methyl 7-(N,N-diethylsulfamoyl)-3-hydroxy-2-naphthoate], the Treg expansion macrophages result is recorded as “✓”.

The subject of another data set is IL1b mRNA. Put plainly: IL1b mRNA reduction in Raw cells. The arrangement: key: ✓: using strict cutoffs with respect to DSHN for passing each metric; X: using strict cutoffs with respect to DSHN for passing each metric. As to conditions: pass/fail with respect to DSHN. It is filed as cell-based. An excerpt:
(§3) Development of a more efficacious NR0B2 agonist. While DSHN was a useful proof-of-concept small molecule, macrophages required high doses and chronic exposure for robust influences on subsequent Tregs expansion. […] Therefore, we synthesized several derivatives of DSHN and screened them using a reporter assay which makes use of the endogenous cholesterol homeostatic feedback loop, where FXR activation upregulates NR0B2, which then inhibits LXR and its normal induction of ABCA1. We then followed this screen with several others with stringent cutoffs: effect on endogenous ABCA1 and IL1β expression, reduction of Treg expansion in either macrophage or DC co-cultures, and low cellular toxicity (FIG. 5A, Table 4).
In the case of `CCNS(=O)(=O)c1cccc2cc(C(=O)OC)c(OC)cc12` [Compound 5, Methyl 5-(N-ethylsulfamoyl)-3-methoxy-2-naphthoate], the “IL1b mRNA reduction (Raw Cells)” value was “✓”.

As to `CCNS(=O)(=O)c1ccc2cc(OC)c(C(=O)OC)cc2c1` [Compound 6, Methyl 7-(N-ethylsulfamoyl)-3-methoxy-2-naphthoate], the “IL1b mRNA reduction (Raw Cells)” value is listed as “X”.

On to `COC(=O)c1cc2cccc(S(=O)(=O)N(C)C)c2cc1OC` [Compound 7, Methyl 5-(N,N-dimethylsulfamoyl)-3-methoxy-2-naphthoate], for which the “IL1b mRNA reduction (Raw Cells)” value is listed as “✓”.

For the compound `COC(=O)c1cc2cc(S(=O)(=O)N(C)C)ccc2cc1OC` [Compound 8, Methyl 7-(N,N-dimethylsulfamoyl)-3-methoxy-2-naphthoate], the “IL1b mRNA reduction (Raw Cells)” value was “X”.

For `CCN(CC)S(=O)(=O)c1ccc2cc(O)c(C(=O)OC)cc2c1` [Compound 9, Methyl 7-(N,N-diethylsulfamoyl)-3-hydroxy-2-naphthoate], the “IL1b mRNA reduction (Raw Cells)” value is “✓”.

Another data set deals with Treg expansion. Put plainly: Treg expansion in co-culture with compound-treated splenic CD11C+ dendritic cells. It is filed as cell-based, mouse. Also noted: key to Treg expansion Dendritic Cells: ✓: using strict cutoffs with respect to DSHN for passing each metric; X: using strict cutoffs with respect to DSHN for passing each metric. The note with it: pass/fail with respect to DSHN. The protocol: as §1, §2
`CCNS(=O)(=O)c1cccc2cc(C(=O)OC)c(OC)cc12` [Compound 5, Methyl 5-(N-ethylsulfamoyl)-3-methoxy-2-naphthoate]: the “Treg expansion Dendritic Cells” value was “✓”.

Take `CCNS(=O)(=O)c1ccc2cc(OC)c(C(=O)OC)cc2c1` [Compound 6, Methyl 7-(N-ethylsulfamoyl)-3-methoxy-2-naphthoate]: the “Treg expansion Dendritic Cells” value was “✓”.

On to `COC(=O)c1cc2cccc(S(=O)(=O)N(C)C)c2cc1OC` [Compound 7, Methyl 5-(N,N-dimethylsulfamoyl)-3-methoxy-2-naphthoate], for which the “Treg expansion Dendritic Cells” value was “✓”.

For the compound `COC(=O)c1cc2cc(S(=O)(=O)N(C)C)ccc2cc1OC` [Compound 8, Methyl 7-(N,N-dimethylsulfamoyl)-3-methoxy-2-naphthoate], the “Treg expansion Dendritic Cells” value is listed as “✓”.

Regarding `CCN(CC)S(=O)(=O)c1ccc2cc(O)c(C(=O)OC)cc2c1` [Compound 9, Methyl 7-(N,N-diethylsulfamoyl)-3-hydroxy-2-naphthoate], the “Treg expansion Dendritic Cells” value is recorded as “✓”.

The subject of the next data set is ABCA1 mRNA. Kind of data set: ABCA1 mRNA reduction in Raw cells. It is filed as cell-based. Also noted: key: ✓: using strict cutoffs with respect to DSHN for passing each metric; X: using strict cutoffs with respect to DSHN for passing each metric. The note with it: pass/fail with respect to DSHN.
From the text: as §3
On to `CCNS(=O)(=O)c1cccc2cc(C(=O)OC)c(OC)cc12` [Compound 5, Methyl 5-(N-ethylsulfamoyl)-3-methoxy-2-naphthoate], for which the “ABCA1 mRNA reduction (Raw Cells)” value is recorded as “X”.

On to `CCNS(=O)(=O)c1ccc2cc(OC)c(C(=O)OC)cc2c1` [Compound 6, Methyl 7-(N-ethylsulfamoyl)-3-methoxy-2-naphthoate], for which the “ABCA1 mRNA reduction (Raw Cells)” value is “X”.

Regarding `COC(=O)c1cc2cccc(S(=O)(=O)N(C)C)c2cc1OC` [Compound 7, Methyl 5-(N,N-dimethylsulfamoyl)-3-methoxy-2-naphthoate], the “ABCA1 mRNA reduction (Raw Cells)” value is “X”.

Take `COC(=O)c1cc2cc(S(=O)(=O)N(C)C)ccc2cc1OC` [Compound 8, Methyl 7-(N,N-dimethylsulfamoyl)-3-methoxy-2-naphthoate]: the “ABCA1 mRNA reduction (Raw Cells)” value was “X”.

As to `CCN(CC)S(=O)(=O)c1ccc2cc(O)c(C(=O)OC)cc2c1` [Compound 9, Methyl 7-(N,N-diethylsulfamoyl)-3-hydroxy-2-naphthoate], the “ABCA1 mRNA reduction (Raw Cells)” value is “X”.

Test system in a further data set: not listed separately
Kind of data set: Low cellular toxicity screen. It is filed as cell-based. The note with it: pass/fail with respect to DSHN. The arrangement: key: ✓: using strict cutoffs with respect to DSHN for passing each metric; X: using strict cutoffs with respect to DSHN for passing each metric.
From the text: as §3
Resazurin cell viability assay. 20,000 cells were seeded into 96 well f-bottom, black plates (Corning Costar) and cell viability was measured using 100 μL resazurin per well at 0.3 mg/mL (Acros Organics). The fluorescence signal was quantified by plate reader (560 nm excitation/590 nm emission) at 2-3 h.
With `CCNS(=O)(=O)c1cccc2cc(C(=O)OC)c(OC)cc12` [Compound 5, Methyl 5-(N-ethylsulfamoyl)-3-methoxy-2-naphthoate], the “Low Toxicity” value is reported as “✓”.

Regarding `CCNS(=O)(=O)c1ccc2cc(OC)c(C(=O)OC)cc2c1` [Compound 6, Methyl 7-(N-ethylsulfamoyl)-3-methoxy-2-naphthoate], the “Low Toxicity” value was “X”.

Turning to `COC(=O)c1cc2cccc(S(=O)(=O)N(C)C)c2cc1OC` [Compound 7, Methyl 5-(N,N-dimethylsulfamoyl)-3-methoxy-2-naphthoate], the “Low Toxicity” value is given as “✓”.

In the case of `COC(=O)c1cc2cc(S(=O)(=O)N(C)C)ccc2cc1OC` [Compound 8, Methyl 7-(N,N-dimethylsulfamoyl)-3-methoxy-2-naphthoate], the “Low Toxicity” value was “✓”.

Turning to `CCN(CC)S(=O)(=O)c1ccc2cc(O)c(C(=O)OC)cc2c1` [Compound 9, Methyl 7-(N,N-diethylsulfamoyl)-3-hydroxy-2-naphthoate], the “Low Toxicity” value was “✓”.

The next data set deals with T1, NR0B2 (Homo sapiens, UniProt Q15466).
T1 construct: a reporter assay which makes use of the endogenous cholesterol homeostatic feedback loop; endogenous in cells; host or cells: HepG2
T1 sequence (Q15466 1-257): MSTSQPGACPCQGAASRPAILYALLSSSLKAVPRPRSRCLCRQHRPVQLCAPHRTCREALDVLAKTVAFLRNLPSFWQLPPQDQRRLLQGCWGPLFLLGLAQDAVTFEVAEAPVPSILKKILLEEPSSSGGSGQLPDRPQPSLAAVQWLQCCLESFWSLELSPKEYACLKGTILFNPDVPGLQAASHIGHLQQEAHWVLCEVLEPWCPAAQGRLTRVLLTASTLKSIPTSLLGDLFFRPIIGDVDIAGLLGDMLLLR
Put plainly: ABCA1 reporter screen to identify NR0B2 agonists (HepG2). Format: cell-based. The note with it: HepG2, 50 μM test compound, 1 μM GW3965; pass/fail with respect to DSHN. The arrangement: key: ✓: using strict cutoffs with respect to DSHN for passing each metric; X: using strict cutoffs with respect to DSHN for passing each metric.
From the text: as §3
Screening to identify NR0B2 agonists. HepG2 cells were co-transfected with ABCA1 renilla reporter plasmid and TK-control firefly luciferase vector at 20:1 using Lipofectamine 3000 reagent according to manufacturer's instructions for 24 hrs. Afterwards, 7000 cells were seeded in to 384 well f-bottom, white plates (Greiner Bio-One). Test compounds were added to the plates in a final working volume of 30 μL (for a final concentration of 50 μM) in presence of DMSO or 1 μM GW3965 and incubated for 20-24 hrs at 37° C. Luciferase activity was measured using the Luc-Pair Duo-Luciferase HT Assay kit (GeneCopoeia, Rockville, MD, USA) by adding luciferase substrates sequentially following manufacturer instructions. Luminescence was measured with 2 s integration times in a microplate reader (BioTek Cytation 5), 15 min after adding each substrate. The addition of reagents to the microplates was timed at each step to match the reading time delays and reading sequence of the microplate reader.
With `CCNS(=O)(=O)c1cccc2cc(C(=O)OC)c(OC)cc12` [Compound 5, Methyl 5-(N-ethylsulfamoyl)-3-methoxy-2-naphthoate], the ABCA1 reporter screen result is reported as “X”.

As for `CCNS(=O)(=O)c1ccc2cc(OC)c(C(=O)OC)cc2c1` [Compound 6, Methyl 7-(N-ethylsulfamoyl)-3-methoxy-2-naphthoate], the ABCA1 reporter screen entry is listed as “✓”.

With `COC(=O)c1cc2cccc(S(=O)(=O)N(C)C)c2cc1OC` [Compound 7, Methyl 5-(N,N-dimethylsulfamoyl)-3-methoxy-2-naphthoate], the ABCA1 reporter screen result is recorded as “✓”.

Consider `COC(=O)c1cc2cc(S(=O)(=O)N(C)C)ccc2cc1OC` [Compound 8, Methyl 7-(N,N-dimethylsulfamoyl)-3-methoxy-2-naphthoate], for which the ABCA1 reporter screen result is given as “✓”.

As for `CCN(CC)S(=O)(=O)c1ccc2cc(O)c(C(=O)OC)cc2c1` [Compound 9, Methyl 7-(N,N-diethylsulfamoyl)-3-hydroxy-2-naphthoate], the ABCA1 reporter screen result was “X”.
